Experimental data reported in PubChem BioAssay (NCI).
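Compound exposure: 48 hours, 5 concentrations, 96-well plates. Abbreviation: GI50, concentration required for 50% inhibition of growth. TGI denotes the concentration required for complete inhibition of growth.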

Tests used:
Experiment in all cases: DTP human tumour cell line panel, 48 h
[1] = system: A549 NSCLC
[2] = system: BT-549 breast
[3] = system: IGROV1 ovarian
[4] = system: RPMI-8226 leukemia
[5] = system: KM12 colon
[6] = system: 786-0 renal
[7] = system: EKVX NSCLC
[8] = system: OVCAR-5 ovarian
[9] = system: RXF 393 renal
[10] = system: MDA-MB-435
[11] = system: K-562 leukemia
[12] = system: MOLT-4 leukemia
[13] = system: HOP-62 NSCLC
[14] = system: COLO 205 colon
[15] = system: HCT-116 colon
[16] = system: UO-31 renal
[17] = system: MALME-3M melanoma
[18] = system: NCI-H23 lung
[19] = system: SK-OV-3 ovarian
[20] = system: SF-268 CNS
[21] = system: SR leukemia
[22] = system: NCI-H226 lung
[23] = system: SF-295 CNS
[24] = system: M14 melanoma
[25] = system: ACHN renal
[26] = system: CAKI-1 renal
[27] = system: NCI/ADR-RES ovarian
[28] = system: SK-MEL-28 melanoma
[29] = system: HS 578T breast
[30] = system: SNB-19 CNS
[31] = system: HOP-92 NSCLC
[32] = system: HCT-15 colon
[33] = system: SK-MEL-2 melanoma
[34] = system: SF-539 CNS
[35] = system: SW-620 colon
[36] = system: MDA-MB-231 breast
[37] = system: DU-145 prostate
[38] = system: OVCAR-8 ovarian
[39] = system: NCI-H460 lung
[40] = system: UACC-62 melanoma
[41] = system: HL-60(TB) leukemia
[42] = system: U251 CNS
[43] = system: OVCAR-3 ovarian
[44] = system: SK-MEL-5 melanoma
[45] = system: UACC-257 melanoma
[46] = system: SN12C renal
[47] = system: CCRF-CEM leukemia
[48] = system: HCC-2998 colon
[49] = system: HT29 colon
[50] = system: A498 renal
[51] = system: TK-10 renal
[52] = system: LOX IMVI melanoma
[53] = system: PC-3 prostate
[54] = system: NCI-H522 lung
[55] = system: MCF7 breast
[56] = system: OVCAR-4 ovarian
[57] = system: T-47D breast
[58] = system: SNB-75 CNS

SMILES: O=C1CCc2c(sc3[nH]c(=S)n(Cc4ccccc4)c(=O)c23)C1
- GI50 [1]: 3.29 µM
- TGI [1]: > 100 µM
- GI50 [2]: 1.82 µM
- TGI [2]: 7.35 µM
- GI50 [3]: 5.11 µM
- TGI [3]: > 100 µM
- GI50 [4]: 1.18 µM
- TGI [4]: 9.79 µM
- GI50 [5]: 1.73 µM
- TGI [5]: 6.56 µM
- GI50 [6]: 4 µM
- TGI [6]: > 100 µM
- GI50 [7]: 3.58 µM
- TGI [7]: > 100 µM
- GI50 [8]: 3.67 µM
- TGI [8]: > 100 µM
- GI50 [9]: 5.81 µM
- TGI [9]: > 100 µM
- GI50 [10]: 3.43 µM
- TGI [10]: > 100 µM
- GI50 [11]: 1.76 µM
- TGI [11]: > 100 µM
- GI50 [12]: 4.39 µM
- TGI [12]: > 100 µM
- GI50 [13]: 3.84 µM
- TGI [13]: > 100 µM
- GI50 [14]: 2.36 µM
- TGI [14]: 4.99 µM
- GI50 [15]: 3.38 µM
- TGI [15]: > 100 µM
- GI50 [16]: 2.62 µM
- TGI [16]: 9.7 µM
- GI50 [17]: 4.53 µM
- TGI [17]: > 100 µM
- GI50 [18]: 2.79 µM
- TGI [18]: 8.6 µM
- GI50 [19]: 2.68 µM
- TGI [19]: 7.05 µM
- GI50 [20]: 3.55 µM
- TGI [20]: > 100 µM
- GI50 [21]: 2.3 µM
- TGI [21]: 8.22 µM
- GI50 [22]: 4.05 µM
- TGI [22]: > 100 µM
- GI50 [23]: 2.46 µM
- TGI [23]: 7.23 µM
- GI50 [24]: 3.75 µM
- TGI [24]: > 100 µM
- GI50 [25]: 3.73 µM
- TGI [25]: > 100 µM
- GI50 [26]: 2.54 µM
- TGI [26]: 8.31 µM
- GI50 [27]: 3.25 µM
- TGI [27]: > 100 µM
- GI50 [28]: 4.4 µM
- TGI [28]: > 100 µM
- GI50 [29]: 3.09 µM
- TGI [29]: > 100 µM
- GI50 [30]: 3.93 µM
- TGI [30]: > 100 µM
- GI50 [31]: 1.92 µM
- TGI [31]: 5.33 µM
- GI50 [32]: 2.78 µM
- TGI [32]: 13.8 µM
- GI50 [33]: 2.49 µM
- TGI [33]: 5.81 µM
- GI50 [34]: 2.15 µM
- TGI [34]: 5.61 µM
- GI50 [35]: 4.2 µM
- TGI [35]: > 100 µM
- GI50 [36]: 4.54 µM
- TGI [36]: > 100 µM
- GI50 [37]: 5.06 µM
- TGI [37]: > 100 µM
- GI50 [38]: 3.19 µM
- TGI [38]: > 100 µM
- GI50 [39]: 3.64 µM
- TGI [39]: > 100 µM
- GI50 [40]: 2.54 µM
- TGI [40]: 13.2 µM
- GI50 [41]: 1.95 µM
- TGI [41]: 20.2 µM
- GI50 [42]: 2.14 µM
- TGI [42]: > 100 µM
- GI50 [43]: 3.72 µM
- TGI [43]: > 100 µM
- GI50 [44]: 1.86 µM
- TGI [44]: 3.74 µM
- GI50 [45]: 2.36 µM
- TGI [45]: 7.06 µM
- GI50 [46]: 3.25 µM
- TGI [46]: > 100 µM
- GI50 [47]: 2.88 µM
- TGI [47]: 10.3 µM
- GI50 [48]: 2.88 µM
- TGI [48]: 14 µM
- GI50 [49]: 3.84 µM
- TGI [49]: 27 µM
- GI50 [50]: 3.44 µM
- TGI [50]: > 100 µM
- GI50 [51]: 4.51 µM
- TGI [51]: > 100 µM
- GI50 [52]: 3.38 µM
- TGI [52]: 12.5 µM
- GI50 [53]: 0.616 µM
- TGI [53]: > 100 µM
- GI50 [54]: 0.852 µM
- TGI [54]: 5.05 µM
- GI50 [55]: 3.26 µM
- TGI [55]: 12.4 µM
- GI50 [56]: 3.99 µM
- TGI [56]: > 100 µM
- GI50 [57]: 2.41 µM
- TGI [57]: 43.9 µM
- GI50 [58]: 2.34 µM
- TGI [58]: > 100 µM

SMILES: CCN1C(=O)N(c2ccccc2)C2NN=c3s/c(=C4\C(=O)N(C(C)C)c5ccccc54)c(=O)n3C21 (configuration not stated)
- GI50 [1]: 1.43 µM
- TGI [1]: > 40.5 µM
- GI50 [2]: 1.8 µM
- TGI [2]: 18.9 µM
- GI50 [3]: 1.55 µM
- TGI [3]: > 100 µM
- GI50 [4]: 2.92 µM
- TGI [4]: 18 µM
- GI50 [5]: 0.977 µM
- TGI [5]: > 100 µM
- GI50 [6]: 1.95 µM
- TGI [6]: 8.64 µM
- GI50 [7]: 1.83 µM
- TGI [7]: > 100 µM
- GI50 [8]: 3.38 µM
- TGI [8]: > 100 µM
- GI50 [9]: 0.612 µM
- TGI [9]: 2.63 µM
- GI50 [10]: 0.283 µM
- TGI [10]: 0.991 µM
- GI50 [11]: 0.518 µM
- TGI [11]: > 100 µM
- GI50 [12]: 1.58 µM
- TGI [12]: > 100 µM
- GI50 [13]: 0.689 µM
- TGI [13]: 18.9 µM
- GI50 [14]: 0.54 µM
- TGI [14]: 24.5 µM
- GI50 [15]: 2.18 µM
- TGI [15]: 8.24 µM
- GI50 [16]: 2.35 µM
- TGI [16]: > 100 µM
- GI50 [17]: 1.57 µM
- TGI [17]: > 100 µM
- GI50 [18]: 1.47 µM
- TGI [18]: 28.2 µM
- GI50 [19]: 1.07 µM
- TGI [19]: > 100 µM
- GI50 [20]: 2.1 µM
- TGI [20]: > 100 µM
- GI50 [21]: 0.553 µM
- TGI [21]: > 100 µM
- GI50 [22]: 3.7 µM
- TGI [22]: 31.4 µM
- GI50 [23]: 0.737 µM
- TGI [23]: 4.76 µM
- GI50 [24]: 0.979 µM
- TGI [24]: > 35.6 µM
- GI50 [25]: 1.5 µM
- TGI [25]: > 57.9 µM
- GI50 [26]: 0.661 µM
- TGI [26]: 8.06 µM
- GI50 [27]: 0.702 µM
- TGI [27]: 3.84 µM
- GI50 [28]: 2.71 µM
- TGI [28]: > 100 µM
- GI50 [29]: 1.06 µM
- TGI [29]: 21.8 µM
- GI50 [30]: 2.1 µM
- TGI [30]: > 100 µM
- GI50 [31]: 1.44 µM
- TGI [31]: > 43.5 µM
- GI50 [32]: 0.733 µM
- TGI [32]: > 56.6 µM
- GI50 [33]: 5.99 µM
- TGI [33]: > 100 µM
- GI50 [34]: 0.736 µM
- TGI [34]: 2.24 µM
- GI50 [35]: 0.891 µM
- TGI [35]: > 100 µM
- GI50 [36]: 2.51 µM
- TGI [36]: 11.6 µM
- GI50 [37]: 1.41 µM
- TGI [37]: > 29.4 µM
- GI50 [38]: 2.05 µM
- TGI [38]: > 100 µM
- GI50 [39]: 1.16 µM
- TGI [39]: > 38.9 µM
- GI50 [40]: 0.626 µM
- TGI [40]: > 100 µM
- GI50 [41]: 1.03 µM
- TGI [41]: > 23.6 µM
- GI50 [42]: 1.44 µM
- TGI [42]: > 51.6 µM
- GI50 [43]: 0.886 µM
- TGI [43]: 3.1 µM
- GI50 [44]: 1.04 µM
- TGI [44]: 15.5 µM
- GI50 [45]: > 51.8 µM
- TGI [45]: > 100 µM
- GI50 [46]: 1.86 µM
- TGI [46]: > 100 µM
- GI50 [47]: 1.16 µM
- TGI [47]: > 100 µM
- GI50 [48]: 3.5 µM
- TGI [48]: 61.8 µM
- GI50 [49]: 1.08 µM
- TGI [49]: > 100 µM
- GI50 [50]: 0.367 µM
- TGI [50]: 1.64 µM
- GI50 [51]: 4.84 µM
- TGI [51]: 49.5 µM
- GI50 [52]: 2.17 µM
- TGI [52]: 11.2 µM
- GI50 [53]: 1.45 µM
- TGI [53]: > 77.3 µM
- GI50 [54]: 1.1 µM
- TGI [54]: > 77.9 µM
- GI50 [55]: 0.483 µM
- TGI [55]: > 100 µM
- GI50 [56]: 3.71 µM
- TGI [56]: > 100 µM
- GI50 [57]: 0.716 µM
- TGI [57]: > 100 µM
- GI50 [58]: 0.253 µM
- TGI [58]: 4.79 µM
